Measurements reported in US20030113409A1, “Tellurium containing nutrient formulation and process for enhancing the cumulative weight gain or feed efficacy in poultry” (priority 2001, published 2003).

Experiments:
[1] = Growth performance of three day old chicks fed diet with AS101 (body weight, feed intake, feed efficacy, liver weight, survival, histology); conditions: for increase in BW over Group 1: versus standard diet without selenium
Experimental: Each chick included in the study weighed exactly 80 g. via accurate electronic scale and each chick was marked. There were five different treatment groups, each group comprising ten chicks in four repetitions. The five groups of animals were tested as follows: Group 1 received a standard feeding diet without selenium; Group 2 received the standard feeding diet supplemented with 500 mg/metric ton of selenium; Group 3 received the same diet as Group 2 with the addition of AS101 at a concentration of 500 mg/metric ton; Group 4 received the same diet as Group 2 with the addition of AS101 at a concentration of 2,500 mg/metric ton; Group 5 received the same diet as Group 2 with the addition of AS101 at a concentration of 12,500 mg/ton. All the experiments were randomized and open. The results of each group represent the mean of 40 chicks. For growth period days 3-24, the performance of groups of three day old birds, fed AS101 concentrations of 500 mg/metric ton, 2,500 mg/metric ton or 12,500 mg/metric ton were compared to groups of control birds fed either a standard feeding diet without selenium or a standard feeding diet with an addition of […] selenium. Body weight (BW) was measured after 24 days. At the end of 24 days, the animals were examined for gross signs of toxicity. A gross visual examination was carried out. The liver of each chick was extracted and weighed.

[2] = Phase I and II, cancer patients; cited from earlier work
[3] = intraruminal pellets selenium, dairy heifers; cited from earlier work
[4] = Treatment 3: AS101 500 mg/metric ton
[5] = Treatment 4: AS101 2,500 mg/metric ton
[6] = Treatment 4: AS101 2,500 mg/metric ton, control = Treatment 2
[7] = Treatment 5: AS101 12,500 mg/ton
[8] = Treatment 5: AS101 12,500 mg/ton, control = Treatment 2
[9] = Treatment 2: selenium supplemented diet, no AS101

SMILES: Cl[TeH]1(Cl)(Cl)OCCO1 [AS101, ammonium trichloro(dioxyethylene-O,O′)tellurate]
- change in BW (significance) ([1]; 12.5 g/ton AS101): significant increase in BW
- BW increase ([1]; AS101 500 mg/ton added to mixture that includes selenium): 1.7%
- BW increase ([1]; AS101 2,500 mg/ton added to mixture that includes selenium): 2.3%
- BW increase ([1]; AS101 12,500 mg/ton added to mixture that includes selenium): 5%
- increase in BW over Group 1 ([1]; Group 5, highest level of tellurium): 5.4%
- FEED EFFICACY [1, 4]: 0.731 g/g
- FEED INTAKE [1, 4]: 1382 g
- FE, % OF CONTROL ([1]; Treatment 3: AS101 500 mg/metric ton, control = Treatment 2): 103.5%
- BW, % OF CONTROL ([1]; Treatment 3: AS101 500 mg/metric ton, control = Treatment 2 (selenium diet)): 101.7%
- BW-24D ([1]; Treatment 3: standard diet + selenium 500 mg/metric ton + AS101 500 mg/metric ton, mean of 40 chicks): 1090 g
- FEED EFFICACY [1, 5]: 0.74 g/g
- FEED INTAKE [1, 5]: 1375 g
- BW, % OF CONTROL [1, 6]: 102.3%
- FE, % OF CONTROL [1, 6]: 104.8%
- BW-24D ([1]; Treatment 4: standard diet + selenium + AS101 2,500 mg/metric ton, mean of 40 chicks): 1097 g
- FEED EFFICACY [1, 7]: 0.738 g/g
- FEED INTAKE [1, 7]: 1417 g
- BW, % OF CONTROL [1, 8]: 105%
- FE, % OF CONTROL [1, 8]: 104.5%
- BW-24D ([1]; Treatment 5: standard diet + selenium + AS101 12,500 mg/ton, mean of 40 chicks): 1126 g
- survival rate ([1]; all groups, no mortalities): 100%
- increase of growth rate of young chicks ([1]; diet with at least 0.5 gm selenium per metric ton + 12.5 gm tellurium compound per metric ton, by day 21): up to 5%
- food intake altered by feeding with AS101 ([1]; in vivo): not altered
- histological studies ([1]; in vivo): No pathological changes were observed
- toxicity in clinical trials [2]: non-toxic

SMILES: [Se] [selenium, reference compound]
- weight gains over control [3]: 0.11 to 0.12 kg/day
- increase in BW over Group 1 ([1]; Group 2, addition of 300 mg/ton of selenium): 0.4%
- FEED EFFICACY [1, 9]: 0.706 g/g
- FEED INTAKE [1, 9]: 1405 g
- LIVER, % OF BW [1, 9]: 2.32%
- BW-24D ([1]; Treatment 2: standard diet supplemented with 500 mg/metric ton of selenium, no AS101): 1072 g
